According to patent publication US20100035865A1, “Sulfonamides and Pharmaceutical Compositions Thereof” (PFIZER INC, priority 2007, published 2010):
pEC50: −log10 of the molar value. Several values for one entry are separate records, joined by “and”; a condition that tells them apart may be missing. Equal values may be shown once. Read-outs that look alike come from different tables or passages of the source.

Test system: AMPA receptors
Test: AMPA ES Cell FLIPR Screen, G7330B (EC50 and % effect)
Assay type: cell-based, murine
Conditions: for pEC50: ES cell-derived neurons, 32 uM AMPA challenge
Procedure: The murine ES cell line used was E14-Sx1-16C, which has a targeted mutation in the Sox1 gene, a neuroectodermal marker, that offers G418 resistance when the Sox1 gene is expressed (Stem Cell Sciences). ES cells were maintained undifferentiated as previously described (Roach). […] ES cells were plated on gelatin-coated dishes (BD Biosciences), the media was changed daily and the cells were dissociated with 0.05% Trypsin EDTA (Invitrogen) every other day.
Embryoid Body Formation: Prior to embryoid body (EB) formation the ES cells were weaned from FBS onto Knockout Serum Replacement (KSR) (Invitrogen). To form EBs, ES cells were dissociated into a single cell suspension then 3×10^6 cells were plated in bacteriology dishes (Nunc 4014) and grown as a suspension culture in NeuroEB-I medium that consisted of Knockout™ D-MEM (Invitrogen), supplemented with 10% KSR (Invitrogen), 0.2 mM L-Glutamine (Invitrogen), 0.1 mM MEM non-essential amino acids (Invitrogen), 30 μg/ml Gentamicin (Invitrogen), 1000 u/ml ESGRO (Chemicon), 0.1 mM 2-Mercaptoethanl (Sigma) and 150 ng/ml Transferrin (Invitrogen). The plates were put on a Stovall Belly Button shaker in an atmospheric oxygen incubator. The media was changed on day 2 of EB formation with NeuroEB-I and on day 4 with NeuroEB-II (NeuroEB-I plus 1 μg/ml mNoggin [R&D Systems]).
Neuronal Precursor Selection and Expansion: On day 5 of EB formation, EBs were dissociated with 0.05% Trypsin EDTA, and 4×10^6 cells/100 mm dish were plated on Laminin coated tissue culture dishes in NeuroII-G418 medium that consisted of a base medium of a 1:1 mixture of D-MEM/F12 supplemented with N2 supplements and NeuroBasal Medium supplemented with B27 supplement and 0.1 mM L-Glutamine (all from Invitrogen). The base medium was then supplemented with 10 ng/ml bFGF (Invitrogen), 1 μg/ml mNoggin, 500 ng/ml SHH-N, 100 ng/ml FGF-8b (R&D Systems), 1 μg/ml Laminin and 200 μg/ml G418 (Invitrogen) for selection of neuronal precursors expressing Sox-1. The plates were put in an incubator that contained 2% Oxygen and were maintained in these conditions. During the 6-day selection period, the NeuroII media was changed daily. On day 6, the surviving neuronal precursor foci were dissociated with 0.05% Trypsin EDTA and the cells were plated at a density of 1.5×10^6 cells/100 mm Laminin coated dish in NeuroII-G418 medium. The cells were dissociated every other day for expansion, and prepared for Cryopreservation at passage 3 or 4. The cryopreservation medium contained 50% KSR, 10% Dimethyl Sulfoxide (DMSO) (Sigma) and 40% NeuroI-G418I medium. Neuronas precursors were crypreserved at a concentration of 4×10^6cells/ml and 1 ml/cryovial in a controlled rate freezer overnight then transferred to an ultra-low freezer or liquid nitrogen for long-term storage,
Neuronal Differentiation: Cryopreserved ES cell-derived neuronal precursors were thawed by the rapid thaw method in a 37-degree water-bath. The cells were transferred from the cryovial to a 100 mm Laminin coated tissue culture dish that already contained NeuroII-G418 that had been equilibrated in a 2% Oxygen incubator. The media was changed with fresh NeuroII-G418 the next day. The cells were dissociated every other day as described above for expansion to generate enough cells to plate for the screen. For the screen, the cells were plated into 384-well poly-d-lysine coated tissue culture dishes (BD Biosciences) by the automated SelecT at a cell density of 6K cells/well in differentiation medium NeuroIII that contained a 4:1 ratio of the NeuroBasalMedium/B27:D-MEM/F12/N2 supplemented with 1 μM cAMP (Sigma), 200 μM Ascorbic Acid (Sigma), 1 μg/ml Laminin (Invitrogen) and 10 ng/ml BDNF (R&D Systems). The plates were put in an incubator with 2% Oxygen and allowed to complete the differentiation process for 7 days. The cells could then be used over a 5-day period for the high throughput screen.
Procedure for AMPA ES Cell FLIPR Screen […]

[1] = Dose 31.6 uM, individual determinations
[2] = individual determinations, read-out: G7330B (U): EC50
[3] = mean of individual determinations (range and n in cells below), read-out: G7330B mean EC50
[4] = Dose 32.0 uM, individual determinations

SMILES: CC(C)S(=O)(=O)N[C@H]1COCC[C@]1(O)c1ccc(-c2ccccc2)cc1 (relative stereo) [Example 41, Propane-2-sulfonic acid((3S,4S)-rel-4-biphenyl-4-yl-4-hydroxytetrahydro-pyran-3-yl)-amide]
- G7330B (U): % Effect [1]: 58.3% and 66.6%
- pEC50 [2]: 5.52
- pEC50 [3]: 5.52

SMILES: CC(C)S(=O)(=O)N[C@@H]1CCNC[C@H]1c1ccc(-c2ccccc2C(N)=O)cc1 (relative stereo) [Example 21, 4′-[trans-4-(Propane-2-sulfonylamino)-piperidin-3-yl]-biphenyl-2-carboxylic acid amide]
- G7330B (U): % Effect [4]: 0.573% and 0.266% and 0.149%
- pEC50 [2]: < 4.49
- pEC50 [3]: < 4.49

SMILES: CCN1CC[C@@H](c2ccc(-c3ccccc3)cc2)[C@H](NS(=O)(=O)C(C)C)C1 (relative stereo) [Example 5, propane-2-sulfonic acid (trans-4-biphenyl-4-yl-1-ethyl-piperidin-3-yl)-amide]
- G7330B (U): % Effect [1]: 76.3% and 78.8%
- pEC50 [2]: < 4.50
- pEC50 [3]: < 4.50

SMILES: CCOc1ccccc1-c1ccc(C2CCOCC2NS(=O)(=O)C(C)C)cc1 (stereo not drawn) [Example 33, Propane-2-sulfonic acid[trans-4-(2′-ethoxy-biphenyl-4-yl)-tetrahydro-pyran-3-yl]-amide]
- G7330B (U): % Effect [1]: 122% and 121%
- pEC50 [2]: 5.71
- pEC50 [3]: 5.71

SMILES: CC(C)S(=O)(=O)N[C@@H]1COCC[C@H]1c1ccc(-c2ccccc2Cl)cc1 [Example 36, Propane-2-sulfonic acid[trans-4-(2′-chloro-biphenyl-4-yl)-tetrahydro-pyran-3-yl]-amide]
- pEC50 [2]: 5.15
- pEC50 [3]: 5.15

SMILES: CC(C)S(=O)(=O)NC1CCOCC1c1ccc(-c2ccccc2)cc1 (stereo not drawn) [Example 17, Propane-2-sulfonic acid(cis-3-biphenyl-4-yl-tetrahydro-pyran-4-yl)-amide]
- G7330B (U): % Effect [4]: 150% and 138% and 125%
- pEC50 [2]: 5.14
- pEC50 [3]: 5.14

SMILES: CC(C)S(=O)(=O)N[C@H]1CN(C)CC[C@@H]1c1ccc(-c2ccccc2)cc1 [Example 3, Propane-2-sulfonic acid ((3R,4R)-4-biphenyl-4-yl-1-methyl-piperidin-3-yl)-amide]
- G7330B (U): % Effect [4]: 99.8% and 94.3% and 83.1% and 129% and 98.9% and 119%
- pEC50 [3]: < 5.38

SMILES: CC(C)S(=O)(=O)NC1CCNCC1c1ccc(-c2ccccc2)cc1 (stereo not drawn) [Example 18, Propane-2-sulfonic acid(trans-3-biphenyl-4-yl-piperidin-4-yl)-amide]
- G7330B (U): % Effect [4]: 5.77% and 3.59% and 3.97%
- pEC50 [2]: < 4.49
- pEC50 [3]: < 4.49

SMILES: CC(C)S(=O)(=O)NC1COCCC1c1ccc(-c2ccccc2)cc1 (stereo not drawn) [Example 30, Propane-2-sulfonic acid(trans-4-biphenyl-4-yl-tetrahydro-pyran-3-yl)-amide]
- G7330B (U): % Effect [4]: 119% and 113% and 126%
- pEC50 [2]: 5.27 and < 4.50 and 5.20
- pEC50 [3]: < 4.99

SMILES: CC(C)S(=O)(=O)NC1CCNCC1c1ccc(-c2ccccc2Cl)cc1 (stereo not drawn) [Example 22, Propane-2-sulfonic acid[trans-3-(2′-chloro-biphenyl-4-yl)-piperidin-4-yl]-amide]
- G7330B (U): % Effect [4]: 18.9% and 23.3% and 17.1%
- pEC50 [2]: < 4.49
- pEC50 [3]: < 4.49

SMILES: CC(C)S(=O)(=O)N[C@@H]1CCN(C)C[C@H]1c1ccc(NC(=O)c2cc(F)cc(F)c2)cc1 (relative stereo) [Example 45, 3,5-Difluoro-N-{4-[trans-1-methyl-4-(propane-2-sulfonylamino)-piperidin-3-yl]-phenyl}-benzamide]
- G7330B (U): % Effect [1]: −0.114% and 0.0432% and −0.344%
- pEC50 [2]: < 4.50
- pEC50 [3]: < 4.50

SMILES: CC(C)S(=O)(=O)N[C@@H]1CCN(C)C[C@H]1c1ccc(NC(=O)c2ccccc2)cc1 (relative stereo) [Example 44, N-{4-[trans-1-Methyl-4-(propane-2-sulfonylamino)-piperidin-3-yl]-phenyl}-benzamide]
- G7330B (U): % Effect [1]: 1.85% and 1.10% and 5.81%
- pEC50 [2]: < 4.50
- pEC50 [3]: < 4.50

SMILES: CC(C)S(=O)(=O)NC1CCN(S(C)(=O)=O)CC1c1ccc(-c2ccccc2)cc1 (stereo not drawn) [Example 26, Propane-2-sulfonic acid(trans-3-biphenyl-4-yl-1-methanesulfonyl-piperidin-4-yl)-amide]
- G7330B (U): % Effect [4]: 13.3% and 10.8% and 9.95%
- pEC50 [2]: < 4.49
- pEC50 [3]: < 4.49

SMILES: CNC(=O)c1ccc(-c2ccc([C@@H]3CCOC[C@H]3NS(=O)(=O)C(C)C)cc2)cc1 (relative stereo) [Example 38, 4′-[trans-3-(Propane-2-sulfonylamino)-tetrahydro-pyran-4-yl]-biphenyl-4-carboxylic acid methylamide]
- pEC50 [2]: < 5.00
- pEC50 [3]: < 5.00

SMILES: CC(C)S(=O)(=O)NC1CCN(C)CC1c1ccc(-c2ccc(C#N)cc2)cc1 (stereo not drawn) [Example 24, Propane-2-sulfonic acid[trans-3-(4′-cyano-biphenyl-4-yl)-1-methyl-piperidin-4-yl]-amide]
- G7330B (U): % Effect [1]: 14.5% and 19.9% and 12.7%
- pEC50 [2]: < 4.50
- pEC50 [3]: < 4.50

SMILES: CCS(=O)(=O)NC1CCOCC1c1ccc(-c2ccccc2)cc1 (stereo not drawn) [Example 16, Ethanesulfonic acid(trans-3-biphenyl-4-yl-tetrahydro-pyran-4-yl)-amide]
- G7330B (U): % Effect [4]: 153% and 141% and 140%
- pEC50 [2]: 4.98 and < 4.50 and < 5.00
- pEC50 [3]: < 4.74

SMILES: CC(C)S(=O)(=O)NC1CN(S(C)(=O)=O)CCC1c1ccc(-c2ccccc2)cc1 (stereo not drawn) [Example 6, propane-2-sulfonic acid (trans-4-biphenyl-4-yl-1-methanesulfonyl-piperidin-3-yl-amide]
- G7330B (U): % Effect [1]: 0.710% and −1.26% and 0.0628%
- pEC50 [2]: < 4.50
- pEC50 [3]: < 4.50

SMILES: CC(C)S(=O)(=O)NC1COCCC1c1ccc(-c2ccc(C#N)cc2)cc1 (stereo not drawn) [Example 35, Propane-2-sulfonic acid[trans-4-(4′-cyano-biphenyl-4-yl)-tetrahydro-pyran-3-yl]-amide]
- G7330B (U): % Effect [1]: 146% and 155% and 152%
- pEC50 [2]: 5.05
- pEC50 [3]: 5.05

SMILES: CC(=O)N1CCC(c2ccc(-c3ccccc3)cc2)C(NS(=O)(=O)C(C)C)C1 (stereo not drawn) [Example 43, Propane-2-sulfonic acid(trans-1-acetyl-4-biphenyl-4-yl-piperidin-3-yl)-amide]
- G7330B (U): % Effect [1]: 85.0% and 92.2% and 102%
- pEC50 [2]: < 4.50
- pEC50 [3]: < 4.50

SMILES: CC(=O)N1CCC(NS(=O)(=O)C(C)C)C(c2ccc(-c3ccc(C#N)cc3)cc2)C1 (stereo not drawn) [Example 28, Propane-2-sulfonic acid[trans-1-acetyl-3-(4′-cyano-biphenyl-4-yl)-piperidin-4-yl]-amide]
- G7330B (U): % Effect [4]: 128% and 132% and 116%
- pEC50 [2]: 5.19
- pEC50 [3]: 5.19

SMILES: CC(C)S(=O)(=O)NC1CCN(C)CC1c1ccc(-c2ccccc2)cc1 (stereo not drawn) [Example 25, Propane-2-sulfonic acid(trans-3-biphenyl-4-yl-1-methyl-piperidin-4-yl)-amide]
- G7330B (U): % Effect [4]: −0.323% and 0.295% and 2.72%
- pEC50 [2]: < 4.49
- pEC50 [3]: < 4.49

SMILES: CC(C)S(=O)(=O)NC1COCCC1c1ccc(-c2ccccc2)cc1 (stereo not drawn) [Example 31, Propane-2-sulfonic acid(cis-4-biphenyl-4-yl-tetrahydro-pyran-3-yl)-amide]
- G7330B (U): % Effect [4]: 18.3% and 11.0% and 14.5%
- pEC50 [2]: < 4.49
- pEC50 [3]: < 4.49
